In patent US20250311722A1, “IMPROVED BIOCIDE” (Purgos ApS, priority 2022, published 2025):
“And” between values parts separate entries of the source, which are not always exact repeats. Equal values may be shown once.

How the values were obtained:
rat = details: cited from earlier work
[1] = test system: Coniophora puteana. BAM Ebw. 15; experiment: EN 113 test against wood destroying basidiomycetes; assay type: cell-based; details: for Corrected mass loss / Mass loss: single blocks
Excerpt: EN 113, 2020: Durability of wood and wood-based products-Test method against wood destroying basidiomycetes. Assessment of biocidal efficacy of wood preservatives.
Assessment of the results shown in table XIV.: The protection provided for the wood by the test preservative at the given concentration is deemed to be adequate if: • a) the corrected mean loss is less than 3.0% (m/m) • b) not more than one specimen has suffered a loss in mass greater than 3.0% (m/m) but less than 5.0% (m/m)
The impregnation process was carried out on 24-03-2021 with the following conditions:
Pre-vacuum at 0.1 bar for 30 minutes.
Pressure of 13 bars for 60 minutes.
Scots pine sapwood (Pinus sylvestris L.) for brown rot fungi with an average density of 589 kg/m3.
4 weeks according to EN 113 at 65% RH and 20° C. until stable mass was obtained.
Ionising radiation (2× 25 kGy).

[2] = test system: Pseudomonas aeruginosa, ATCC 15442; experiment: EN 1276 quantitative suspension test, bactericidal activity; assay type: cell-based
Description: (§1) The test was carried out according to EN 1276, 2019: Chemical disinfectants and antiseptics-Quantitative suspension test for the evaluation of bactericidal activity of chemical disinfectants and antiseptics used in food, industrial, domestic, and institutional areas-Test method and requirements. […] The growth media TSB (Tryptic Soy Broth) was separately inoculated with a culture loop of the microorganisms. The cultures were incubated at 37° C. for 24 hours. Bovine Serum Albumin with a final concentration of 3 g/L Polysorbate 80 with a concentration of 30 g/L The used method was Dilution-neutralization method. 1 mL of interfering substance was pipetted into a tube and 1 mL of the test suspension was added and mixed. […] The solution was incubated at 20° C. for 5 min. and 60 min. respectively. […] After 5 min. of neutralization time 100 μL of the mixture was added to a petri-dish containing TSA media. Another 100 μL was added to a tube containing 900 μL 0.9% NaCl and a serial dilution to 10^-5 was made. The mixtures added to the agar plates were evenly distributed with a Drigalski-spatula. The agar plates were incubated at 37° C. for 24 hours. After incubation, the number of surviving bacteria (CFU) was counted. The test was performed in 3 replicates.

[3] = test system: Escherichia coli, ATCC 10536; experiment: as above; assay type: cell-based
Description: as §1

[4] = test system: Staphylococcus aureus, ATCC 6538; experiment: as above; assay type: cell-based; details: all tested contact times (5, 60 min) and concentrations (1.5%, 3%, 6%)
Description: as §1

Murine norovirus = experiment: ASTM E1052 Kill Time Screen test, antiviral activity; assay type: cell-based

For `CCCCN(CCO)CCO` [NBDA, N-butyldiethanolamine], the “LD50 (rat, oral)” value (rat) is listed as 4250 mg/kg, the “Toxic value, Retention of product” value ([1]; Scots pine sapwood) is listed as greater than 9.86 kg/m^3 and the “Toxic value, Solution conc.” value ([1]; Scots pine sapwood) is listed as greater than 1.43 % w/w. For the same compound, the “Corrected mass loss, Mean” value ([1]; solution conc. 0.36% w/w) was 36.6%, the “Mass loss, Mean” value ([1]; solution conc. 0.36% w/w) was 36.8% and the Corrected mass loss ([1]; solution conc. 0.36% w/w) was 39.2% and 27.2% and 47.6% and 32.3%. For the same compound, the Mass loss ([1]; solution conc. 0.36% w/w) was 39.4% and 27.4% and 47.8% and 32.5%, the “Corrected mass loss, Mean” value ([1]; solution conc. 0.51% w/w) was 38.3% and the “Mass loss, Mean” value ([1]; solution conc. 0.51% w/w) was 38.5%. For the same compound, the Corrected mass loss ([1]; solution conc. 0.51% w/w) was 42.4% and 39.5% and 34.0% and 37.2%, the Mass loss ([1]; solution conc. 0.51% w/w) was 42.6% and 39.7% and 34.2% and 37.4% and the “Corrected mass loss, Mean” value ([1]; solution conc. 0.72% w/w) was 37.4%. For the same compound, the “Mass loss, Mean” value ([1]; solution conc. 0.72% w/w) was 37.1%, the Corrected mass loss ([1]; solution conc. 0.72% w/w) was 29.8% and 43.3% and 36.9% and 39.7% and the Mass loss ([1]; solution conc. 0.72% w/w) was 29.5% and 43.0% and 36.6% and 39.3%. For the same compound, the “Corrected mass loss, Mean” value ([1]; solution conc. 1.01% w/w) was 40.4%, the “Mass loss, Mean” value ([1]; solution conc. 1.01% w/w) was 39.9% and the Corrected mass loss ([1]; solution conc. 1.01% w/w) was 37.2% and 41.8% and 45.1% and 37.3%. For the same compound, the Mass loss ([1]; solution conc. 1.01% w/w) was 36.7% and 41.4% and 44.6% and 36.8%, the “Corrected mass loss, Mean” value ([1]; solution conc. 1.43% w/w) was 36.1% and the “Mass loss, Mean” value ([1]; solution conc. 1.43% w/w) was 35.0%. For the same compound, the Corrected mass loss ([1]; solution conc. 1.43% w/w) was 31.1% and 37.2% and 38.4% and 37.8%, the Mass loss ([1]; solution conc. 1.43% w/w) was 30.0% and 36.2% and 37.3% and 36.7% and the CFU/plate ([2]; 1.5%, contact time 5 min) was greater than 165 CFU/plate. It also gave a log10 reduction ([2]; 1.5%, contact time 5 min) of less than 5 log10, a CFU/plate ([2]; 1.5%, contact time 60 min) greater than 165 CFU/plate and a log10 reduction ([2]; 1.5%, contact time 60 min) of less than 5 log10. For the same compound, the CFU/plate ([2]; 3.0%, contact time 5 min) was greater than 165 CFU/plate, the log10 reduction ([2]; 3.0%, contact time 5 min) was less than 5 log10 and the CFU/plate ([2]; 3.0%, contact time 60 min) was greater than 165 CFU/plate. For the same compound, the log10 reduction ([2]; 3.0%, contact time 60 min) was less than 5 log10, the CFU/plate ([2]; 6.0%, contact time 5 min) was greater than 165 CFU/plate and the log10 reduction ([2]; 6.0%, contact time 5 min) was less than 5 log10. For the same compound, the CFU/plate ([2]; 6.0%, contact time 60 min) was 25 CFU/plate and 22 CFU/plate and 35 CFU/plate, the CFU/plate ([3]; 1.5%, contact time 5 min) was greater than 165 CFU/plate and the log10 reduction ([3]; 1.5%, contact time 5 min) was less than 5 log10. For the same compound, the CFU/plate ([3]; 1.5%, contact time 60 min) was greater than 165 CFU/plate, the log10 reduction ([3]; 1.5%, contact time 60 min) was less than 5 log10 and the CFU/plate ([3]; 3.0%, contact time 5 min) was greater than 165 CFU/plate. It also gave a log10 reduction ([3]; 3.0%, contact time 5 min) of less than 5 log10, a CFU/plate ([3]; 3.0%, contact time 60 min) greater than 165 CFU/plate and a log10 reduction ([3]; 3.0%, contact time 60 min) of less than 5 log10. For the same compound, the CFU/plate ([3]; 6.0%, contact time 5 min) was greater than 165 CFU/plate, the log10 reduction ([3]; 6.0%, contact time 5 min) was less than 5 log10 and the CFU/plate ([3]; 6.0%, contact time 60 min) was 25 CFU/plate and 29 CFU/plate and 30 CFU/plate. The “log changes of CFU” value [4] was “lower than 5 log units”, the “Mean log reduction after 60 seconds” value (Murine norovirus; 1.0% NBDA) was 0.34 and the “Mean log reduction after 60 seconds” value (Murine norovirus; 5.0% NBDA) was 0.34. For the same compound, the “Norovirus eliminated (destroyed) in 60 seconds” value (Murine norovirus; from log reduction 0.34) was 54%.
